Results: patent publication US9586986B2, “Substituted 7-deazapurine ribonucleosides for therapeutic uses” (Institute of Organic Chemistry and Biochemistry ASCR, v.v.i., priority 2014, dated 2017)

Legend:
CCRF-CEM cells [1] = assay: Mitotic cells, pH3Ser10 antibody labeling (flow cytometry); type: cell-based, human; settings: CCRF-CEM cells treated at IC50 for 24 hrs
Experimental: (§1) After the incubation period, cells were then washed with cold 1×PBS and fixed in 70% ethanol added dropwise and stored overnight at −20° C. Afterwards, cells were washed in hypotonic citrate buffer, treated with RNase (50 μg/mL) and stained with propidium iodide. Flow cytometry using a 488 nm single-beam laser (Becton Dickinson) was used for measurement. The data were analyzed according to the program ModFitLT (Verity), and apoptosis was expressed as the percentage of cells with a propidium content lower than that in the G0/G1 population. Half of the sample was used for pH3^ser10 antibody (Sigma) labeling and subsequent flow cytometry analysis of mitotic cells.
(§2) However, the major mechanism of action was inhibition of RNA synthesis (BrU incorporation). […] Cell cycle alterations (G1, S, G2/M) were not observed in treated cells under specified experimental conditions.

CCRF-CEM cells [2] = assay: BrdU incorporation analysis (DNA synthesis); type: cell-based, human; settings: for BrdU+ (DNA synthesis), % of total cell populations: CCRF-CEM cells treated at IC50 for 24 hrs; for DNA synthesis inhibition in words: CCRF-CEM, IC50, 24 hours
Experimental: Cells were cultured as for cell cycle analysis. Before harvesting, they were pulse-labelled with 10 M 5-bromo-2′-deoxyuridine (BrdU) for 30 min. The cells were trypsinized, fixed with ice-cold 70% ethanol, incubated on ice for 30 min, washed with PBS, and resuspended in 2 M HCl for 30 min at room temperature to denature their DNA. Following neutralization with 0.1 M Na2B4O7, the cells were washed with PBS containing 0.5% Tween-20 and 1% BSA. They were then stained with primary anti-BrdU antibody (Exbio) for 30 min at room temperature in the dark. Cells were than washed with PBS and stained with secondary anti-mouse-FITC antibody (Sigma). The cells were then washed with PBS, incubated with propidium iodide (0.1 mg/mL) and RNAse A (0.5 mg/mL) for 1 h at room temperature in the dark, and finally analyzed by flow cytometry using a 488 nm single-beam laser (FACSCalibur, Becton Dickinson).
as §2

A549 = assay: Cytostatic/cytotoxic MTT assay, A549; type: cell-based; settings: Homo sapiens, A549; 72 h incubation; read-out: MTT, IC50 A549
Summary of the method: (§3)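 IC50 values reflect the drug concentration halving cell growth in a 72 h MTT assay. Readings were taken at 540 nm after SDS lysis, using duplicate four-fold dilution series on cells plated a day earlier.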

BJ = assay: Cytostatic/cytotoxic MTT assay, BJ fibroblasts; type: cell-based; settings: Homo sapiens, non-malignant fibroblasts, 72 h, read-out: MTT, IC50 BJ
Summary of the method: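 Cells were seeded at 25,000-30,000 per well and pre-incubated 24 h before addition of four-fold compound dilutions in duplicate. After 72 h at 37 °C in 5% CO2, MTT was added for 1-4 h, formazan dissolved in 10% SDS (pH 5.5) overnight, and OD read at 540 nm; IC50 taken from dose-response curves.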

CCRF-CEM cells [3] = assay: Cell cycle and apoptosis analysis (flow cytometry, propidium iodide); type: cell-based, human; settings: CCRF-CEM cells treated at IC50 for 24 hrs
Experimental: as §1, §2

CCRF-CEM = assay: Cytostatic/cytotoxic MTT assay, CCRF-CEM; type: cell-based; settings: Homo sapiens, 72 h incubation, read-out: MTT, IC50 CCRF-CEM
Summary of the method: as §3

K562-TAX = assay: Cytostatic/cytotoxic MTT assay, K562-TAX; type: cell-based; settings: Homo sapiens, paclitaxel resistant subline, 72 h, read-out: MTT, IC50 K562-TAX
Summary of the method: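 Human cancer lines, including daunorubicin-resistant CEM-DNR (mrp-1/mdr-1 overexpressing) and paclitaxel-resistant K562-TAX (mdr-1), seeded 25,000-30,000 cells/well, pre-incubated 24 h, then treated in duplicate with four-fold dilutions for 72 h at 37° C, 5% CO2. MTT read-out at 540 nm; IC50 from dose-response curves.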

## COc1ncnc2c1c(-c1ccco1)cn2[C@@H]1O[C@H](CO)[C@@H](O)[C@H]1O [Compound 1a, 5-(Furan-2-yl)-4-methoxy-7-(β-D-ribofuranosyl)-7H-pyrrolo[2,3-d]pyrimidine]
CCRF-CEM cells [1]
  pH3Ser10+ (mitosis), % of total cell populations: 1.4%
CCRF-CEM cells [2]
  BrdU+ (DNA synthesis), % of total cell populations: 45.3%
A549
  IC50: 0.03 µM
BJ
  IC50: 0.43 µM
CCRF-CEM cells [3]
  G1, % of total cell populations: 42.8%
  G2/M, % of total cell populations: 12.9%
  S, % of total cell populations: 44.3%
  sub-G1 (apoptosis), % of total cell populations: 6.8%
CCRF-CEM
  IC50: 0.02 µM
K562-TAX
  IC50: 0.38 µM

## COc1ncnc2c1c(I)cn2[C@@H]1O[C@H](CO)[C@@H](O)[C@H]1O [Compound 1h, 5-iodo-4-methoxy-7-(β-D-ribofuranosyl)-7H-pyrrolo[2,3-d]pyrimidine, reference compound]
CCRF-CEM cells [1]
  pH3Ser10+ (mitosis), % of total cell populations: 0.9%
CCRF-CEM cells [2]
  BrdU+ (DNA synthesis), % of total cell populations: 38.9%
  DNA synthesis inhibition in words: barely inhibited
A549
  IC50: > 20 µM
BJ
  IC50: 91 µM
CCRF-CEM cells [3]
  G1, % of total cell populations: 37.9%
  G2/M, % of total cell populations: 12.9%
  S, % of total cell populations: 49.2%
  sub-G1 (apoptosis), % of total cell populations: 6%
CCRF-CEM
  IC50: 1.15 µM
K562-TAX
  IC50: 14.8 µM

## CSc1ncnc2c1c(-c1ccco1)cn2[C@@H]1O[C@H](CO)[C@@H](O)[C@H]1O [Compound 2a, 5-(Furan-2-yl)-4-methylsulfanyl-7-(β-D-ribofuranosyl)-7H-pyrrolo[2,3-d]pyrimidine]
CCRF-CEM cells [1]
  pH3Ser10+ (mitosis), % of total cell populations: 0.7%
CCRF-CEM cells [2]
  BrdU+ (DNA synthesis), % of total cell populations: 29.5%
  DNA synthesis inhibition in words: barely inhibited
A549
  IC50: 0.05 µM
BJ
  IC50: 0.26 µM
CCRF-CEM cells [3]
  G1, % of total cell populations: 43.5%
  G2/M, % of total cell populations: 11.3%
  S, % of total cell populations: 45.3%
  sub-G1 (apoptosis), % of total cell populations: 7.9%
CCRF-CEM
  IC50: 0.05 µM
K562-TAX
  IC50: 0.21 µM

## CSc1ncnc2c1c(-c1ccsc1)cn2[C@@H]1O[C@H](CO)[C@@H](O)[C@H]1O [Compound 2d, 4-Methylsulfanyl-7-(β-D-ribofuranosyl)-5-(thiophen-3-yl)-7H-pyrrolo[2,3-d]pyrimidine]
A549
  IC50: > 20 µM
BJ
  IC50: 95.8 µM
CCRF-CEM
  IC50: > 20 µM
other
  melting point: 192 to 193 °C
K562-TAX
  IC50: > 20 µM

## CSc1ncnc2c1c(-c1ccccc1)cn2[C@@H]1O[C@H](CO)[C@@H](O)[C@H]1O [Compound 2e, 4-Methylsulfanyl-5-phenyl-7-(β-D-ribofuranosyl)-7H-pyrrolo[2,3-d]pyrimidine]
A549
  IC50: > 20 µM
BJ
  IC50: > 100 µM
CCRF-CEM
  IC50: > 20 µM
other
  melting point: 169 to 170 °C
K562-TAX
  IC50: > 20 µM

## CSc1ncnc2c1c(I)cn2[C@@H]1O[C@H](CO)[C@@H](O)[C@H]1O [Compound 2h, 5-Iodo-4-methylsulfanyl-7-(β-D-ribofuranosyl)-7H-pyrrolo[2,3-d]pyrimidine]
A549
  IC50: > 20 µM
BJ
  IC50: 86.1 µM
CCRF-CEM
  IC50: > 20 µM
other
  melting point: 217 to 219 °C
K562-TAX
  IC50: 7.73 µM

## CNc1ncnc2c1c(-c1ccco1)cn2[C@@H]1O[C@H](CO)[C@@H](O)[C@H]1O [Compound 3a, 5-(Furan-2-yl)-4-methylamino-7-(β-D-ribofuranosyl)-7H-pyrrolo[2,3-d]pyrimidine]
CCRF-CEM cells [1]
  pH3Ser10+ (mitosis), % of total cell populations: 1.4%
CCRF-CEM cells [2]
  BrdU+ (DNA synthesis), % of total cell populations: 47.2%
A549
  IC50: 2.57 µM
BJ
  IC50: 5.04 µM
CCRF-CEM cells [3]
  G1, % of total cell populations: 42.2%
  G2/M, % of total cell populations: 12.1%
  S, % of total cell populations: 45.8%
  sub-G1 (apoptosis), % of total cell populations: 10.6%
CCRF-CEM
  IC50: 0.18 µM
K562-TAX
  IC50: 15.1 µM

## CNc1ncnc2c1c(-c1ccoc1)cn2[C@@H]1O[C@H](CO)[C@@H](O)[C@H]1O [Compound 3b, 5-(Furan-3-yl)-4-methylamino-7-(β-D-ribofuranosyl)-7H-pyrrolo[2,3-d]pyrimidine]
A549
  IC50: > 20 µM
BJ
  IC50: 96.3 µM
CCRF-CEM
  IC50: > 20 µM
other
  melting point: 90 to 97 °C
K562-TAX
  IC50: > 20 µM

## CNc1ncnc2c1c(-c1cccs1)cn2[C@@H]1O[C@H](CO)[C@@H](O)[C@H]1O [Compound 3c, 4-Methylamino-7-(β-D-ribofuranosyl)-5-(thiophen-2-yl)-7H-pyrrolo[2,3-d]pyrimidine]
A549
  IC50: > 20 µM
BJ
  IC50: > 100 µM
CCRF-CEM
  IC50: > 20 µM
other
  melting point: 183 to 185 °C
K562-TAX
  IC50: > 20 µM

## CNc1ncnc2c1c(-c1ccsc1)cn2[C@@H]1O[C@H](CO)[C@@H](O)[C@H]1O [Compound 3d, 4-Methylamino-7-(β-D-ribofuranosyl)-5-(thiophen-3-yl)-7H-pyrrolo[2,3-d]pyrimidine]
A549
  IC50: > 20 µM
BJ
  IC50: > 100 µM
CCRF-CEM
  IC50: > 20 µM
other
  melting point: 135 to 138 °C
K562-TAX
  IC50: > 20 µM

## CNc1ncnc2c1c(-c1ccccc1)cn2[C@@H]1O[C@H](CO)[C@@H](O)[C@H]1O [Compound 3e, 4-Methylamino-5-phenyl-7-(β-D-ribofuranosyl)-7H-pyrrolo[2,3-d]pyrimidine]
A549
  IC50: > 20 µM
BJ
  IC50: > 100 µM
CCRF-CEM
  IC50: > 20 µM
other
  melting point: 149 to 153 °C
K562-TAX
  IC50: > 20 µM

## CNc1ncnc2c1c(-c1cc3ccccc3o1)cn2[C@@H]1O[C@H](CO)[C@@H](O)[C@H]1O [Compound 3f, 5-(Benzofuran-2-yl)-4-methylamino-7-(β-D-ribofuranosyl)-7H-pyrrolo[2,3-d]pyrimidine]
A549
  IC50: > 20 µM
BJ
  IC50: 75.6 µM
CCRF-CEM
  IC50: > 20 µM
other
  melting point: 203 to 206 °C
K562-TAX
  IC50: > 20 µM

## CN(C)c1ncnc2c1c(-c1ccoc1)cn2[C@@H]1O[C@H](CO)[C@@H](O)[C@H]1O [Compound 4b, 4-Dimethylamino-5-(furan-3-yl)-7-(β-D-ribofuranosyl)-7H-pyrrolo[2,3-d]pyrimidine]
A549
  IC50: > 20 µM
BJ
  IC50: 99.2 µM
CCRF-CEM
  IC50: 13.3 µM
other
  melting point: 94 to 97 °C
K562-TAX
  IC50: 14.9 µM

## Cc1ncnc2c1c(-c1cccs1)cn2[C@@H]1O[C@H](CO)[C@@H](O)[C@H]1O [Compound 5c, 4-Methyl-7-(β-D-ribofuranosyl)-5-(thiophen-2-yl)-7H-pyrrolo[2,3-d]pyrimidine]
A549
  IC50: > 20 µM
BJ
  IC50: > 100 µM
CCRF-CEM
  IC50: > 20 µM
other
  melting point: 110 to 111 °C
K562-TAX
  IC50: > 20 µM
